Results from patent publication US10844091B2 (priority 2017, dated 2020).

What was measured:
Format in all cases: in vivo
[1] = test system: rat models with Alzheimer's disease; experiment: Extrapolation escape (EE) test, scopolamine-induced Alzheimer's disease model; conditions: 3 min test; scopolamine 1 mg/kg i.p. 27 days; donepezil 1 mg/kg i.p. 10 days, peptide (LYS) 0.1 mg/kg i.n. 10 days
Experimental: (§1) White random-bred adult male rats weighing 200-240 g were used. Groups of 7 animals per group were formed. 1st group—control, 2nd—pathology, 3rd—comparator drug, 4th-6th—neuropeptides.
(§2) Scopolamine was administered i.p. to the animals in all groups except for the control at a 1 mg/kg dose daily, once a day for 27 days. From the 28th day on, the animals in groups 2 and 3 were administered the comparator drug and the claimed preparation respectively over the course of 10 days. The drugs were administered daily, once a day.
(§3) The tetrapeptides were administered i.n at a 0.1 mg/kg dose. The animals in the pathology group received 0.9% sodium chloride solution i.n. and i.p. as a placebo.
(§4) The OF and EE tests were conducted on the 1st day, PST—on the 2nd day, CPAR—on the 1st and 10th day post treatment with the preparations. […] The antiamnesic action (AA) in the CPAR test was calculated using Butler's formula [K. S. Radionova. […] After that, the animals were removed from the experiment by administering a narcotic, followed by decapitation. The brain was extracted and weighed, and the brain weight coefficient (BWC) was calculated. Immediately after extraction, the brain was frozen in liquid nitrogen and used in subsequent biochemical and histochemical studies. Glucose levels in whole arterial (common carotid artery) and venous (venous cerebral sinus) blood were determined by the glucose oxidase test, the difference in the arterial-venous glucose content was calculated (glucose consumption marker). The levels of average weight molecules—the toxic products of cell biodegradation damaged during the disease (nucleoside derivatives, peptoids, glucuronic acid salts, etc.) in the blood serum (AWM) were calculated [A. N. Kovalevsky. Notes on the screening method of determination average weight molecules/A. N. Kovalevsky, O. Ye. Nifantiev//Lab. Science. […] 35-39].

[2] = test system: rat models with Alzheimer's disease; experiment: Conditioned passive avoidance reflex (CPAR) test, scopolamine-induced Alzheimer's disease model; conditions: for AA less than in the tetrapeptide (LYS) group: donepezil 1 mg/kg; for number of animals who reached the CPAR learning criterium: % of total trained animals, criterium at least 180 sec in light area
Experimental: as §1, §2, §3, §4

rat models with AD = experiment: Porsolt swim test (PST), scopolamine-induced Alzheimer's disease model; conditions: AD rats; donepezil 1 mg/kg i.p., tetrapeptide (LYS) 0.1 mg/kg i.n.
Experimental: as §1, §2, §3, §4

Structure (SMILES): COc1cc2c(cc1OC)C(=O)C(CC1CCN(Cc3ccccc3)CC1)C2 (centres unmarked) [donepezil, reference compound]
- % of animals succeeded [1]: 100%
- Escape time [1]: 18.86 ± 3.57 s
- AA less than in the tetrapeptide (LYS) group ([2]; 10th day): 1.9 times
- Latent period of entry into the dark area of the CPAR device, In 24 hrs. ([2]; In 24 hrs., scopolamine + donepezil 1 mg/kg or tetrapeptide (LYS) 0.1 mg/kg i.n.): 93.29 ± 26.11 s
- Latent period of entry into the dark area of the CPAR device, In 10 days ([2]; In 10 days, scopolamine + donepezil 1 mg/kg or tetrapeptide (LYS) 0.1 mg/kg i.n.): 69.43 ± 11.10^ sec.
- Latent period of entry into the dark area of the CPAR device, Initial ([2]; Initial, scopolamine + donepezil 1 mg/kg or tetrapeptide (LYS) 0.1 mg/kg i.n.): 24.00 ± 6.23 s
- number of animals who reached the CPAR learning criterium ([2]; first day): 28.6%
- AA less than in the tetrapeptide (LYS) group ([2]; first day): 2.9 times
- number of animals who reached the CPAR learning criterium ([2]; tenth day): goes down to the level of the pathology group
- Latent period of immobilization (rat models with AD): 69.43 ± 12.64 s
- Number of immobilization acts (rat models with AD): 9.29 ± 1.66
